We go through 14 compounds from DBAASP.

As usually defined, the MIC is the lowest concentration found to suppress growth.

≈ marks a conversion by molar mass, not a printed value.

Test systems include Escherichia coli; Pseudomonas aeruginosa; Staphylococcus aureus; Escherichia coli UB1005.
Assay in all cases: ≥ marks a high value that may be exact or a test limit, other limits are often not marked, values filed in µg/mL are converted to µM
In assay [1] the test system is Pseudomonas aeruginosa ATCC 9027.
For assay [2], the system named is Staphylococcus aureus ATCC 6538.
Assay [3] concerns Candida albicans ATCC 10231.
Assay [4] has as its system Pseudomonas aeruginosa ATCC 27853.
Assay [5] deals with Staphylococcus aureus ATCC 29213.
Assay [6] has as its system Salmonella typhimurium KCTC 1926.
The subject of assay [7] is Pseudomonas aeruginosa PAO1.
The subject of assay [8] is Staphylococcus aureus ATCC 25923.
The subject of assay [9] is Candida albicans ATCC 90028.
Assay [10] concerns Escherichia coli ATCC 25922.
Assay [11] has as its system Enterococcus faecalis ATCC 29212.

In the case of `CC(C)C[C@H](NC(=O)[C@H](CCCCN)NC(=O)[C@H](C)NC(=O)[C@H](CC(C)C)NC(=O)[C@H](CC(C)C)NC(=O)[C@H](CCCCN)NC(=O)[C@H](C)NC(=O)[C@@H](N)Cc1ccccc1)C(=O)N[C@@H](C)C(=O)N[C@@H](CCCCN)C(=O)N[C@@H](C)C(=O)N[C@@H](CCCCN)C(=O)N[C@@H](C)C(N)=O` [FAKLLAKLAKAKA], the MIC was 146 µM (≈ 200 µg/mL) in [1] and 72.8 µM (≈ 99.9 µg/mL) in assay [2].

With `CC(C)C[C@H](NC(=O)[C@H](CCCCN)NC(=O)[C@H](CCCCN)NC(=O)[C@H](CC(C)C)NC(=O)[C@H](CC(C)C)NC(=O)[C@H](CCCCN)NC(=O)[C@H](CCCCN)NC(=O)[C@H](CC(C)C)NC(=O)[C@H](CCCCN)NC(=O)[C@H](CCCCN)NC(=O)[C@H](CC(C)C)NC(=O)[C@H](CC(C)C)NC(=O)[C@H](CCCCN)NC(=O)[C@H](CCCCN)NC(=O)[C@H](CC(C)C)NC(=O)[C@H](CC(C)C)NC(=O)[C@H](CCCCN)NC(=O)[C@@H](N)Cc1ccc(O)cc1)C(N)=O` [YKLLKKLLKKLKKLLKKL], the MIC amounted to 27.9 µM (≈ 62.4 µg/mL) in assay [3], 6.31 µM (≈ 14.1 µg/mL) in assay [4] and 18.1 µM (≈ 40.6 µg/mL) in assay [5].

For `CC(C)C[C@H](NC(=O)[C@H](C)NC(=O)[C@H](CCCCN)NC(=O)[C@H](CCCCN)NC(=O)[C@H](CC(C)C)NC(=O)[C@H](C)NC(=O)[C@H](CCCCN)NC(=O)[C@H](Cc1ccccc1)NC(=O)[C@H](CC(C)C)NC(=O)[C@H](CC(C)C)NC(=O)[C@H](CCCCN)NC(=O)[C@H](C)NC(=O)[C@@H](N)Cc1ccccc1)C(N)=O` [FAKLLFKALKKAL], the MIC in [1] was 134 µM (≈ 200 µg/mL); in assay [2], 33.5 µM (≈ 50 µg/mL).

For the compound `CC[C@H](C)[C@H](NC(=O)[C@@H](NC(=O)[C@@H](NC(=O)[C@H](CCCN=C(N)N)NC(=O)[C@@H](NC(=O)[C@@H](NC(=O)[C@H](CC(C)C)NC(=O)[C@@H]1CCCN1C(=O)[C@H](Cc1c[nH]c2ccccc12)NC(=O)[C@@H](NC(=O)[C@H](CCCN=C(N)N)NC(=O)[C@H](CCCCN)NC(=O)[C@@H](NC(=O)[C@@H](N)CCCN=C(N)N)C(C)C)C(C)C)C(C)C)[C@@H](C)CC)[C@@H](C)O)C(C)C)C(=O)N[C@@H](C)C(=O)NCC(=O)N[C@@H](Cc1ccc(O)cc1)C(=O)N[C@@H](CC(N)=O)C(=O)N[C@@H](CC(C)C)C(=O)O` [RVKRVWPLVIRTVIAGYNL], the MIC in assay [6] was at least 32 µM.

As for `CC(C)C[C@H](NC(=O)[C@H](C)NC(=O)[C@H](CC(C)C)NC(=O)[C@H](CCCCN)NC(=O)[C@H](C)NC(=O)[C@H](CC(C)C)NC(=O)[C@H](CCCCN)NC(=O)[C@H](CCCCN)NC(=O)[C@H](C)NC(=O)[C@H](CC(C)C)NC(=O)[C@H](CCCCN)NC(=O)[C@H](CCCCN)NC(=O)[C@H](C)NC(=O)[C@@H](N)Cc1ccccc1)C(N)=O` [FAKKLAKKLAKLAL], the values for the MIC in [1] and in assay [2] were 64.8 µM (≈ 99.9 µg/mL) and 3.24 µM (≈ 5 µg/mL), respectively.

Turning to `CC[C@H](C)[C@H](NC(=O)CN)C(=O)NCC(=O)N[C@@H](CCCCN)C(=O)N[C@@H](Cc1ccccc1)C(=O)N[C@H](C(=O)N[C@@H](Cc1cnc[nH]1)C(=O)N[C@@H](CO)C(=O)N[C@H](C(=O)N[C@@H](CCCCN)C(=O)N[C@@H](CCCCN)C(=O)N[C@@H](Cc1c[nH]c2ccccc12)C(=O)NCC(=O)N[C@@H](CCCCN)C(=O)N[C@H](C(=O)N[C@@H](Cc1ccccc1)C(=O)N[C@H](C(=O)NCC(=O)N[C@@H](CCC(=O)O)C(=O)N[C@H](C(=O)N[C@@H](CCSC)C(=O)N[C@@H](CC(N)=O)C(=O)N[C@@H](CO)C(N)=O)[C@@H](C)CC)[C@@H](C)CC)[C@@H](C)O)C(C)C)[C@@H](C)CC` [GIGKFIHSVKKWGKTFIGEIMNS], the MIC against Escherichia coli came to 2.3 µM (≈ 5.93 µg/mL); against Pseudomonas aeruginosa it was 18 µM (≈ 46.4 µg/mL); in the assay on Staphylococcus aureus, 18 µM (≈ 46.4 µg/mL).

On to `CC(C)C[C@H](NC(=O)[C@H](CCCCN)NC(=O)[C@H](CC(C)C)NC(=O)[C@H](CCCCN)NC(=O)[C@H](CC(C)C)NC(=O)[C@H](C)NC(=O)[C@H](CCCCN)NC(=O)[C@H](C)NC(=O)[C@H](CC(C)C)NC(=O)[C@H](CC(C)C)NC(=O)[C@H](CCCCN)NC(=O)[C@H](C)NC(=O)[C@@H](N)Cc1ccccc1)C(N)=O` [FAKLLAKALKLKL], for which the MIC in [1] was 17.2 µM (≈ 25 µg/mL); in assay [2], 6.86 µM (≈ 9.99 µg/mL).

With `CC[C@H](C)[C@H](NC(=O)[C@H](CCCN=C(N)N)NC(=O)[C@H](CCCN=C(N)N)NC(=O)[C@@H]1CCCN1C(=O)[C@H](Cc1c[nH]c2ccccc12)NC(=O)[C@H](CCCN=C(N)N)NC(=O)[C@@H]1CCCN1C(=O)[C@H](CCCN=C(N)N)NC(=O)[C@@H]1CCCN1C(=O)[C@H](CC(C)C)NC(=O)[C@H](Cc1ccc(O)cc1)NC(=O)[C@@H]1CCCN1C(=O)[C@@H]1CCCN1C(=O)[C@H](CCCCN)NC(=O)[C@H](CCCN=C(N)N)NC(=O)[C@@H](N)C(C)C)C(=O)N[C@@H](Cc1ccc(O)cc1)C(=O)N[C@@H](CC(N)=O)C(=O)N[C@@H](CCCN=C(N)N)C(N)=O` [VRKPPYLPRPRWPRRIYNR], the MIC is 0.516 µM (≈ 1.3 µg/mL) in the assay with Escherichia coli UB1005, 2.24 µM (≈ 5.65 µg/mL) in assay [7] and 0.198 µM (≈ 0.5 µg/mL) in assay [8].

Take `CC[C@H](C)[C@H](NC(=O)[C@H](CCCN=C(N)N)NC(=O)[C@H](CCCN=C(N)N)NC(=O)[C@@H]1CCCN1C(=O)[C@@H]1CCCN1C(=O)[C@H](CCCN=C(N)N)NC(=O)[C@@H]1CCCN1C(=O)[C@H](CCCN=C(N)N)NC(=O)[C@@H]1CCCN1C(=O)[C@H](CC(C)C)NC(=O)[C@H](Cc1ccc(O)cc1)NC(=O)[C@@H]1CCCN1C(=O)[C@@H]1CCCN1C(=O)[C@H](CCCCN)NC(=O)[C@@H]1CCCN1C(=O)[C@@H](N)C(C)C)C(=O)N[C@@H](Cc1ccc(O)cc1)C(=O)N[C@@H](CC(N)=O)C(=O)N[C@@H](CCCN=C(N)N)C(N)=O` [VPKPPYLPRPRPPRRIYNR]: the MIC in the assay on Escherichia coli UB1005 was determined as 2.11 µM (≈ 5 µg/mL); in assay [7], 19.1 µM (≈ 45.2 µg/mL); in assay [8] it was 3.37 µM (≈ 8 µg/mL).

Take `CC[C@H](C)[C@H](NC(=O)[C@H](CCCN=C(N)N)NC(=O)[C@H](CCC(N)=O)NC(=O)[C@@H](NC(=O)[C@@H](NC(=O)[C@H](CCCN=C(N)N)NC(=O)[C@@H](N)CCCCN)[C@@H](C)CC)C(C)C)C(=O)N[C@@H](CCCCN)C(=O)N[C@@H](CC(=O)O)C(=O)N[C@@H](Cc1ccccc1)C(=O)N[C@@H](CC(C)C)C(=O)N[C@@H](CCCCN)C(=O)O` [KRIVQRIKDFLK]: the MIC is 10 µM (≈ 15.4 µg/mL) in assay [9], 5 µM (≈ 7.72 µg/mL) in [10], 5 µM (≈ 7.72 µg/mL) in assay [4] and 10 µM (≈ 15.4 µg/mL) in [5].

Regarding `CC(C)C[C@H](NC(=O)[C@H](C)NC(=O)[C@H](CC(C)C)NC(=O)[C@@H](N)CCCCN)C(=O)N[C@@H](CCCCN)C(=O)N[C@@H](C)C(=O)N[C@@H](C)C(=O)N[C@@H](C)C(=O)N[C@@H](CCCCN)C(=O)N[C@@H](C)C(=O)N[C@@H](Cc1c[nH]c2ccccc12)C(=O)N[C@@H](CCCCN)C(=O)N[C@@H](C)C(=O)N[C@@H](C)C(=O)N[C@@H](C)C(=O)N[C@@H](CCCCN)C(=O)N[C@@H](C)C(=O)N[C@@H](C)C(N)=O` [KLALKAAAKAWKAAAKAA], the values for the MIC in the assay with Escherichia coli, with Pseudomonas aeruginosa and with Staphylococcus aureus were 91 µM (≈ 162 µg/mL), over 91 µM and over 91 µM, respectively.

For the compound `CSCC[C@H](NC(=O)[C@H](CCCN=C(N)N)NC(=O)[C@H](Cc1c[nH]c2ccccc12)NC(=O)[C@H](CCC(N)=O)NC(=O)[C@H](Cc1c[nH]c2ccccc12)NC(=O)[C@H](CCCN=C(N)N)NC(=O)[C@H](CCCN=C(N)N)NC(=O)[C@H](C)NC(=O)[C@H](CCCCN)NC(=O)[C@@H](N)Cc1ccccc1)C(=O)N[C@@H](CCCCN)C(=O)N[C@@H](CCCCN)C(=O)O` [FKARRWQWRMKK], the results for the MIC in assay [11] and in assay [10] were 58.2 µM (≈ 100 µg/mL) and 116 µM (≈ 200 µg/mL), respectively.

Take `CC[C@H](C)[C@H](NC(=O)[C@H](CCCN=C(N)N)NC(=O)[C@H](CCC(N)=O)NC(=O)[C@H](C)NC(=O)[C@H](C)NC(=O)[C@H](CCCN=C(N)N)NC(=O)[C@@H](N)CCCCN)C(=O)N[C@@H](CCCCN)C(=O)N[C@@H](C)C(=O)N[C@@H](Cc1ccccc1)C(=O)N[C@@H](CC(C)C)C(=O)N[C@@H](CCCN=C(N)N)C(=O)O` [KRAAQRIKAFLR]: the MIC is at least 40 µM in assay [9], 2.5 µM (≈ 3.64 µg/mL) in assay [10], 5 µM (≈ 7.29 µg/mL) in assay [4] and 10 µM (≈ 14.6 µg/mL) in assay [5].

As for `CC(C)C[C@H](NC(=O)[C@H](CCCCN)NC(=O)[C@H](Cc1ccccc1)NC(=O)[C@H](CC(C)C)NC(=O)[C@H](CC(C)C)NC(=O)CNC(=O)[C@H](CCCCN)NC(=O)[C@H](CC(C)C)NC(=O)[C@H](CCCCN)NC(=O)[C@@H]1CCCN1C(=O)[C@H](CC(C)C)NC(=O)[C@H](CC(C)C)NC(=O)[C@H](CC(C)C)NC(=O)[C@H](CCCCN)NC(=O)[C@H](CC(C)C)NC(=O)[C@H](CC(C)C)NC(=O)[C@H](CCCCN)NC(=O)[C@@H](N)Cc1ccc(O)cc1)C(N)=O` [YKLLKLLLPKLKGLLFKL], the MIC in assay [3] is 69.6 µM (≈ 149 µg/mL); in assay [4] it was 3.96 µM (≈ 8.48 µg/mL); in assay [5], 1.14 µM (≈ 2.45 µg/mL).
